Patent US8420630B2 (Boehringer Ingelheim Pharma GmbH & Co. KG, priority 2001, dated 2013)
pIC50: −log10 of the molar value.

Molecular target: T1, CDK1/cyclinB1 (Homo sapiens, UniProt P06493)
T1 construct: made in house; host or cells: High Five insect cells (Trichoplusia ni), baculovirus coinfection
Assay: Cyclin B1-CDK1 kinase inhibition test
Assay type: biochemical
Details: CDK1 tests (Example 13); recombinant cyclin B1/CDK1, substrate histone H1; read-out: CDK1/cyclinB1 IC50 value
Experimental: CDK4) were cloned by standard methods using RT-PCR, and cloned into a transfer vector (cyclin in pAcG2T made by Pharmingen, CDKs in p2Bac made by Invitrogen) for the baculovirus system. […] After thawing the cells were resuspended in lysing buffer (50 mM HEPES pH 7.5, 10 mM MgCl2, 1 mM DTT, 5 μg/ml leupeptin, 5 μg/ml aprotinin, 100 μM NaF, 100 μM PMSF, 10 mM β-glycerolphosphate, 100 μM Na3VO4, 30 mM nitrophenylphosphate, 17.5 ml of lysing buffer per 10^8 cells) and incubated on ice for 30 min. […] Cyclin D1-CDK4 was purified by means of a GST-tag on cyclin D1 and then using glutathione beads (total protein about 0.2 mg/ml). All the kinase tests were carried out in 96-well microtitre plates (Greiner PS) in a final volume of 60 μl. […] As a negative control the kinase reaction was carried out in the absence of the substrate histone H1. As a positive control the kinase reaction was carried out in the absence of a test substance. As an internal control 30 μM and 300 μM (final concentration) of the kinase inhibitor olomoucin (Alexis) were used. […] The kinase reaction is started by the addition of 10 μl of ATP mix (0.045 mM ATP, 0.5 μCi ^33P-ATP in kinase buffer) and incubated for 30 min at 30° C. and 600 rpm in a shaking incubator. After incubation the plates were placed on ice and the proteins were precipitated by the addition of 125 μl of ice-cold 5% trichloroacetic acid. After 15 min on ice the precipitates were transferred onto Packard Unifilter 96 GF/B plates with the Packard Harvester System, and collected by vacuum filtration. The precipitates were washed 4 times with dist. H2O at ambient temperature. The filter plates were then dried at 60° C. and 50 μl of scintillation liquid were added to each well (Ultima Gold, Packard). The plate was sealed up with Sealing Tape and after 1 h measured in a scintillation measuring apparatus (Micro Beta made by Wallac).

T1 sequence (P06493 whole entry): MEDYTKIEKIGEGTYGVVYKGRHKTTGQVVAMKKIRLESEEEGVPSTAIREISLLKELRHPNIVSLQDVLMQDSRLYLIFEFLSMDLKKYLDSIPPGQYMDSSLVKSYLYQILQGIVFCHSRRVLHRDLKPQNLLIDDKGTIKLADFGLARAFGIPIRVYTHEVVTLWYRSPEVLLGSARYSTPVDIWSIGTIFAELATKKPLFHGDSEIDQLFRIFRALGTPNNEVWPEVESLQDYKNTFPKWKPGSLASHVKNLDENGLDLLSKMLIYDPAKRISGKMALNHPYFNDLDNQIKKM
T1 sequence (P14635 whole entry partner): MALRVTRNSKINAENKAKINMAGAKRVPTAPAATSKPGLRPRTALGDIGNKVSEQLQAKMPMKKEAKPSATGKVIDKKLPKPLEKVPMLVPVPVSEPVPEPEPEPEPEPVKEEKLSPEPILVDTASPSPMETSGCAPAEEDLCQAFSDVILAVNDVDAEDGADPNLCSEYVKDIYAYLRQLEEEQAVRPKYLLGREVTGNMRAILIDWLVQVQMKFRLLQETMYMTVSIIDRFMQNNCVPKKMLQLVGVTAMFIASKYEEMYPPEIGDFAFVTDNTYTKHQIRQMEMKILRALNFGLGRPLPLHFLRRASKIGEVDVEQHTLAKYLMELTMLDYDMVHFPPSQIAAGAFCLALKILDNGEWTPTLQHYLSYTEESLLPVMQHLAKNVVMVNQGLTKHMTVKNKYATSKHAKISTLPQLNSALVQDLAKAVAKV

Structure (SMILES) | pIC50
CC(=O)NCCNc1nc(Nc2ccc(S(=O)(=O)Nc3ccccn3)cc2)ncc1C(F)(F)F [Example 2(059), N-(2-{2-[4-(Pyridin-2-ylsulphamoyl)-phenylamino]-5-trifluoromethyl-pyrimidin-4-ylamino}-ethyl)-acetamide] | > 7.00
O=C1CCCN1CCCNc1nc(Nc2ccc3[nH]nnc3c2)ncc1C(F)(F)F [Example 2(036), 1-{3-[2-(1H-Benzotriazol-5-ylamino)-5-trifluoromethyl-pyrimidin-4-ylamino]-propyl}-pyrrolidin-2-one] | > 7.00
CC(C)CC(=O)NCCCNc1nc(Nc2ccc3cnn(C)c3c2)ncc1C(F)(F)F [Example 7(015), 3-methyl-N-{3-[2-(1-methyl-1H-indazol-6-ylamino)-5-trifluoromethyl-pyrimidin-4-ylamino]-propyl}-butyramide] | > 7.00
CN(C)S(=O)(=O)c1ccc(Nc2ncc(Cl)c(NCCCN3CCCC3=O)n2)cc1 [Example 2(109), 4-{5-Chloro-4-[3-(2-oxo-pyrrolidin-1-yl)-propylamino]-pyrimidin-2-ylamino}-N,N-dimethyl-phenylsulphonamide] | > 7.00
O=[N+]([O-])c1cnc(Nc2ccc(Cl)cc2)nc1N1CCCC(CCCCN2CCCC2)C1 (centres unmarked) [Example 1(028), 2-(4-chloro-phenylamino)-4-(3-(4-(pyrrolidin-1-yl)butyl)-piperidin-1-yl)-5-nitro-pyrimidine] | > 7.00
O=[N+]([O-])c1cnc(Nc2ccc(Cl)cc2)nc1N1CCC[C@H]1CO [Example 1(055), 2-(4-chloro-phenylamino)-4-((2S)-2-hydroxymethyl-pyrrolidin-1-yl)-5-nitro-pyrimidine] | > 7.00
CC(=O)NCC1CCCN(c2nc(Nc3ccc(Cl)c(Cl)c3)ncc2C(F)(F)F)C1 (centres unmarked) [Example 1(040), 2-(3,4-dichloro-phenylamino)-4-(3-acetylaminomethyl-piperidin-1-yl)-5-trifluoromethyl-pyrimidine] | > 7.00
NC1CCCC(Nc2nc(Nc3ccc(Cl)cc3)ncc2[N+](=O)[O-])C1 (centres unmarked) [Example 1(034), 2-(4-chloro-phenylamino)-4-(3-amino-cyclohexylamino)-5-nitro-pyrimidine] | > 7.00
CC(C)C(=O)NCCCNc1nc(Nc2ccc3cnn(C)c3c2)ncc1C(F)(F)F [Example 7(002), N-{3-[2-(1-methyl-1H-indazol-6-ylamino)-5-trifluoromethyl-pyrimidin-4-ylamino]-propyl}-isobutyramide] | > 7.00
CC(=O)NCCNc1nc(Nc2ccc3cn(C)nc3c2)ncc1C(F)(F)F [Example 1(656), N-{2-[2-(2-methyl-2H-indazol-6-ylamino)-5-trifluoromethyl-pyrimidin-4-ylamino]-ethyl}-acetamide] | > 7.00
O=C1CCCN1CCCNc1nc(Nc2cccc(Cl)c2)ncc1C(F)(F)F [Example 1(067), 2-(3-chloro-phenylamino)-4-(3-(2-oxo-pyrrolidin-1-yl)-propyl-1-amino)-5-trifluoromethyl-pyrimidine] | > 7.00
NCCCCCNc1nc(Nc2cccc(Cl)c2)ncc1C(F)(F)F [Example 1(077), 2-(3-chloro-phenylamino)-4-(5-amino-1-pentylamino)-5-trifluoromethyl-pyrimidine] | > 7.00
O=C1CCCN1CCCNc1nc(Nc2ccc3cn[nH]c3c2)ncc1Cl [Example 2(048), 1-{3-[5-chloro-2-(1H-indazol-6-ylamino)-pyrimidin-4-ylamino]-propyl}-pyrrolidin-2-on] | > 7.00
NCCCNc1nc(Nc2cccc(Cl)c2)ncc1C(F)(F)F [Example 1(012), 2-(3-chlorophenylamino)-4-(3-aminopropyl-amino)-5-trifluoromethyl-pyrimidine] | > 7.00
NCCCNc1nc(Nc2cccc(Br)c2)ncc1C(F)(F)F [Example 1(024), 2-(3-bromo-phenylamino)-4-(3-amino-propylamino)-5-trifluoromethyl-pyrimidine] | > 7.00
O=C1CCCN1CCCNc1nc(Nc2cccc(CNCC(F)(F)F)c2)ncc1C(F)(F)F [Example 11(034), 1-[3-(2-{3-[(2,2,2-Trifluoro-ethylamino)-methyl]-phenylamino}-5-trifluoromethyl-pyrimidin-4-ylamino)-propyl]-pyrrolidin-2-one] | > 7.00
CN1CCC2(CCN(c3nc(Nc4ccc(Cl)c(Cl)c4)ncc3C(F)(F)F)C2)C1 (centres unmarked) [Example 1(117), 2-(3,4-dichlorophenylamino)-4-(7-methyl-2,7-diaza-spiro[4.4]non-2-yl)-5-trifluoromethyl-pyrimidine] | > 7.00
CC(=O)NCCNc1nc(Nc2ccc(N(C)S(C)(=O)=O)cc2)ncc1C(F)(F)F [Example 2(011), 2-(4-(N-Methyl-N-methylsulphonyl)amino-phenylamino)-4-(2-acetylamino-ethylamino)-5-trifluoromethyl-pyrimidine] | > 7.00
NCCCNc1nc(Nc2ccc(C(N)=O)cc2)ncc1C(F)(F)F [Example 1(693), 4-[4-(3-aminopropylamino)-5-trifluoromethyl-pyrimidin-2-ylamino]benzamide] | > 7.00
O=C1CCCN1CCCNc1nc(Nc2ccc(CO)cc2)ncc1C(F)(F)F [Example 2(052), 1-{3-[2-(4-Hydroxymethyl-phenylamino)-5-trifluoromethyl-pyrimidin-4-ylamino]-propyl}-pyrrolidin-2-one] | > 7.00
COCCNc1nc(Nc2ccc(Cl)c(Cl)c2)ncc1C(F)(F)F [Example 1(093), 2-(3,4-dichloro-phenylamino)-4-(2-methoxy-1-ethylamino)-5-trifluoromethyl-pyrimidine] | > 7.00
NCCCOCCCNc1nc(Nc2ccc(Cl)c(Cl)c2)ncc1C(F)(F)F [Example 1(073)] | > 7.00
Clc1cnc(Nc2ccc3cn[nH]c3c2)nc1N1CCc2[nH]cnc2C1 [Example 2(134), [5-Chloro-4-(1,4,6,7-tetrahydro-imidazo[4,5-c]pyridin-5-yl)-pyrimidin-2-yl]-(1H-indazol-6-yl)-amine] | > 7.00
O=C(O)CCc1ccc(Nc2ncc(C(F)(F)F)c(N3CCc4[nH]cnc4C3)n2)cc1 [Example 1(023), 2-(4-(2-carboxy-1-ethyl-)phenylamino)-4-(1,4,6,7-tetrahydro-imidazo[4,5-c]pyridin-5-yl)-5-trifluoromethyl-pyrimidine] | > 7.00
CC(=O)NCCNc1nc(Nc2ccc3cn[nH]c3c2)ncc1C(F)(F)F [Example 2(044), N-{2-[2-(1H-Indazol-6-ylamino)-5-trifluoromethyl-pyrimidin-4-ylamino]-ethyl}-acetamide] | > 7.00
CC(C)COC(=O)NCCCNc1nc(Nc2ccc3cnn(C)c3c2)ncc1C(F)(F)F [Example 7(024)] | > 7.00
CC(=O)NCCNc1nc(Nc2cccc([N+](=O)[O-])c2)ncc1C(F)(F)F [Example 2(010), 2-(3-Nitro-phenylamino)-4-(2-acetylamino-ethylamino)-5-trifluoromethyl-pyrimidine] | > 7.00
NCC1CCC(CNc2nc(Nc3ccc(Cl)cc3)ncc2C(F)(F)F)CC1 (centres unmarked) [Example 1(107), 2-(4-chloro-phenylamino)-4-(4-aminomethyl-cyclohexylmethylamino)-5-trifluoromethyl-pyrimidine] | > 7.00
NC1CCCC(Nc2nc(Nc3cc(Cl)cc(Cl)c3)ncc2C(F)(F)F)C1 (centres unmarked) [Example 1(020), 2-(3,5-dichloro-phenylamino)-4-(3-amino-cyclohexylamino)-5-trifluoromethyl-pyrimidine] | > 7.00
